# Data reported in patent US20240376099A1, “COMPOUNDS AND COMPOSITIONS AS INHIBITORS OF ENDOSOMAL TOLL-LIKE RECEPTORS” (Novartis AG, priority 2016, published 2024).
# pIC50: −log10 of the molar value.
# Molecular target: T1, TLR7 (Homo sapiens, UniProt Q9NYK1)
# T1 construct: Fresh blood was collected from normal human donors; endogenous in cells; host or cells: human PBMCs from fresh donor blood
# T1 sequence (Q9NYK1 27-1049): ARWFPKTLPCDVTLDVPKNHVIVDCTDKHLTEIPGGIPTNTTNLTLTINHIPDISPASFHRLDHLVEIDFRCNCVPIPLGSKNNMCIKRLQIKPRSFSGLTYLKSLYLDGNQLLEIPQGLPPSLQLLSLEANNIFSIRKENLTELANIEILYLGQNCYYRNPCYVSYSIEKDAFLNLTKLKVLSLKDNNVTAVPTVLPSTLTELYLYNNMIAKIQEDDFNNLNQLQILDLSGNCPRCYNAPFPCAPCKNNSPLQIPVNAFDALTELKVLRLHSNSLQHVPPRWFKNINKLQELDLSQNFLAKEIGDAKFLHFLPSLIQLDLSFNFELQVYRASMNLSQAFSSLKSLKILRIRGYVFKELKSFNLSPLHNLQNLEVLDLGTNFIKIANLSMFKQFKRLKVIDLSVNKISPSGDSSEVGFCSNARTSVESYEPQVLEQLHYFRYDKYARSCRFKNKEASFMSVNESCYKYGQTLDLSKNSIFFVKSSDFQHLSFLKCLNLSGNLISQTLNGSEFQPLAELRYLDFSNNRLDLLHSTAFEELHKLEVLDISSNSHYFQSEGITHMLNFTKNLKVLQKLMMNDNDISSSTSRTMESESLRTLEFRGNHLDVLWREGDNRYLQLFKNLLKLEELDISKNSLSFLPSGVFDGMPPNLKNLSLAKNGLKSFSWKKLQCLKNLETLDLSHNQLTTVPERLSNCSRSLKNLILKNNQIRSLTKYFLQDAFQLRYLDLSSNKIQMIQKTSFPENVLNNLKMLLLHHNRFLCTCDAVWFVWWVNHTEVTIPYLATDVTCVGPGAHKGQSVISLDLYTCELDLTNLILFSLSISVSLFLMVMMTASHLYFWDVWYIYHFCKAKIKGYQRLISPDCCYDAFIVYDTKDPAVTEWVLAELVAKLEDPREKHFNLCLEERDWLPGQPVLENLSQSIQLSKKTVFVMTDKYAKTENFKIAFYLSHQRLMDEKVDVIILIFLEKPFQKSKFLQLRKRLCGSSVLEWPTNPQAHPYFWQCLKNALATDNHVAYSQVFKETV
# Test: huPBMC TLR7 Antagonist IFNα Assay
# Format: cell-based
# Conditions: human PBMCs stimulated with ssRNA40 10 μg/mL (DOTAP), 14-16 hrs; IFNα2b AlphaLISA read-out
# How it was run: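 Human PBMCs from fresh donor blood (150,000 cells/well) stimulated 14–16 h at 37 °C with DOTAP-complexed ssRNA40 (final 1 μg/ml for TLR8, 10 μg/mL for TLR7) or ODN2216 (final 0.3 μM, TLR9), 0.25% DMSO, ten-point 1/3 compound dilutions. Supernatant IL-6 read by HTRF (TLR8); IFNα by IFNα2b AlphaLISA (TLR7/TLR9).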
row,Structure (SMILES),pIC50
1,"Cc1nn(CC23CCC(N)(CC2)CC3)c2c1CN(c1ccnc(-c3ccc(C#N)cc3)c1)CC2 [Compound No. 84, 4-(4-(1-((4-aminobicyclo[2.2.2]octan-1-yl)methyl)-3-methyl-6,7-dihydro-1H-pyrazolo[4,3-c]pyridin-5(4H)-yl)pyridin-2-yl)benzonitrile]",6.52
2,"Cc1cc(N2CCc3c(c(C)nn3CC34CCC(NC5CCC5)(CC3)CC4)C2)c2cnn(C)c2n1 [compound 54, N-cyclobutyl-4-((5-(1,6-dimethyl-1H-pyrazolo[3,4-b]pyridin-4-yl)-3-methyl-4,5,6,7-tetrahydro-1H-pyrazolo[4,3-c]pyridin-1-yl)methyl)bicyclo[2.2.2]octan-1-amine]",8.40
3,"CCNC12CCC(Cn3nc(C)c4c3CCN(c3cc(C)nc5c3cnn5C)C4)(CC1)CC2 [compound 57, 4-((5-(1,6-dimethyl-1H-pyrazolo[3,4-b]pyridin-4-yl)-3-methyl-4,5,6,7-tetrahydro-1H-pyrazolo[4,3-c]pyridin-1-yl)methyl)-N-ethylbicyclo[2.2.]octan-1-amine]",8.15
4,"Cc1cc(N2CCc3c(c(C)nn3CC34CCC(N5CCC5)(CC3)CC4)C2)c2cnn(C)c2n1 [compound 64, 1-((4-(azetidin-1-yl)bicyclo[2.2.2]octan-1-yl)methyl)-5-(1,6-dimethyl-1H-pyrazolo[3,4-b]pyridin-4-yl)-3-methyl-4,5,6,7-tetrahydro-1H-pyrazolo[4,3-c]pyridine]",8.40
5,"CCOCCNC12CCC(Cn3nc(C)c4c3CCN(c3cc(C)nc5c3cnn5C)C4)(CC1)CC2 [compound 71, 4-((5-(1,6-dimethyl-1H-pyrazolo[3,4-b]pyridin-4-yl)-3-methyl-4,5,6,7-tetrahydro-1H-pyrazolo[4,3-c]pyridin-1-yl)methyl)-N-(2-ethoxyethyl)bicyclo[2.2.2]octan-1-amine]",8.30

# Continued by rising pIC50, values first:
row,pIC50,Structure (SMILES)
1,6.52,"Cc1cc(N2CCc3nn(CC45CC(N)(C4)C5)c(C)c3C2)c2cnn(C)c2n1 [compound 52, 3-((5-(1,6-dimethyl-1H-pyrazolo[3,4-b]pyridin-4-yl)-3-methyl-4,5,6,7-tetrahydro-2H-pyrazolo[4,3-c]pyridin-2-yl)methyl)bicyclo[1.1.1]pentan-1-amine]"
2,7.25,"Cc1cc(N2CCc3c(c(C)nn3CC34CCC(O)(CC3)CC4)C2)c2cnn(C)c2n1 [compound 46, 4-((5-(1,6-dimethyl-1H-pyrazolo[3,4-b]pyridin-4-yl)-3-methyl-4,5,6,7-tetrahydro-1H-pyrazolo[4,3-c]pyridin-1-yl)methyl)bicyclo[2.2.2]octan-1-ol]"
3,7.43,"CCOCCN(CCOCC)C12CCC(Cn3nc(C)c4c3CCN(c3cc(C)nc5c3cnn5C)C4)(CC1)CC2 [compound 72, 4-((5-(1,6-dimethyl-1H-pyrazolo[3,4-b]pyridin-4-yl)-3-methyl-4,5,6,7-tetrahydro-1H-pyrazolo[4,3-c]pyridin-1-yl)methyl)-N,N-bis(2-ethoxyethyl)bicyclo[2.2.2]octan-1-amine]"
4,8.15,"Cc1cc(N2CCc3c(c(C)nn3CC34CCC(NC(C)CO)(CC3)CC4)C2)c2cnn(C)c2n1 (centres unmarked) [compound 56, 2-((4-((5-(1,6-dimethyl-1H-pyrazolo[3,4-b]pyridin-4-yl)-3-methyl-4,5,6,7-tetrahydro-1H-pyrazolo[4,3-c]pyridin-1-yl)methyl)bicyclo[2.2.2]octan-1-yl)amino)propan-1-ol]"
5,8.15,"Cc1cc(N2CCc3c(c(C)nn3CC34CCC(N5C[C@@H](O)[C@@H](O)C5)(CC3)CC4)C2)c2cnn(C)c2n1 [compound 74, (3S,4R)-1-(4-((5-(1,6-dimethyl-1H-pyrazolo[3,4-b]pyridin-4-yl)-3-methyl-4,5,6,7-tetrahydro-1H-pyrazolo[4,3-c]pyridin-1-yl)methyl)bicyclo[2.2.2]octan-1-yl)pyrrolidine-3,4-diol]"
6,8.30,"Cc1cc(N2CCc3c(c(C)nn3CC34CCC(NC(C)C)(CC3)CC4)C2)c2cnn(C)c2n1 [compound 55, 4-((5-(1,6-dimethyl-1H-pyrazolo[3,4-b]pyridin-4-yl)-3-methyl-4,5,6,7-tetrahydro-1H-pyrazolo[4,3-c]pyridin-1-yl)methyl)-N-isopropylbicyclo[2.2.]octan-1-amine]"
